# Source: publication PMC10050424, “Structural basis of the substrate recognition and inhibition mechanism of Plasmodium falciparum nucleoside transporter PfENT1” (Nature Communications, 2023)
# “And” between values parts separate entries of the source, which are not always exact repeats. Identical values can stand only once. Like-named read-outs stand apart in the source and are kept apart here.
# Columns and labels:
# PfENT1 mutant R291A = target: T1, PfENT1 mutant R291A (Plasmodium falciparum, UniProt Q8IDM6, R291A); assay: ITC binding to PfENT1 mutant R291A
# T1 construct: 10xHis (N); made in house; host or cells: Sf9 insect cells (baculovirus)
# T1 sequence (Q8IDM6 whole entry R291A): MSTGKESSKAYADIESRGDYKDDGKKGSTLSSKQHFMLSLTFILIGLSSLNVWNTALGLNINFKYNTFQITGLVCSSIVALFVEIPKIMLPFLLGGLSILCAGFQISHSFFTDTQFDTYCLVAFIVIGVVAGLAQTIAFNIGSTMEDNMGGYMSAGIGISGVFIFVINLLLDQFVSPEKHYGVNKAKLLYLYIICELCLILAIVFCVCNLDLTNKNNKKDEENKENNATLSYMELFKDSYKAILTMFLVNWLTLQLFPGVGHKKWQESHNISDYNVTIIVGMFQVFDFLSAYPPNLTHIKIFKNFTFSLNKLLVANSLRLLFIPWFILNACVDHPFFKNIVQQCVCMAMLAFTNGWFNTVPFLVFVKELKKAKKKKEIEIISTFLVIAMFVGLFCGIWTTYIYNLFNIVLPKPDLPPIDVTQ
# Description: (§1) For the in vitro binding assay, Sf9 cells were solubilized in lysis buffer containing 2% (w/v) n-dodecyl-β-D-maltopyranoside (DDM, Anatrace) and protease inhibitor cocktail (0.8 μM aprotinin, 2 μM pepstatin, and 5 μg/ml leupeptin) at 4 °C for 2 h. The soluble supernatant was collected via centrifugation and incubated with Ni-NTA resin (QIAGEN) at 4 °C for 1 h. The resin was washed and eluted using lysis buffer containing 0.05% (w/v) DDM and 30 mM/300 mM imidazole. The protein was further purified by size-exclusion chromatography (Superdex 200 Increase 10/300; GE Healthcare) in buffer containing 25 mM MES (pH 6.0), 150 mM NaCl, and 0.05% (w/v) DDM. The peak fractions were pooled and concentrated to 10~50 μM for the nucleoside-binding assay.
# (§2) The binding affinity between wild-type and mutant PfENT1 with nucleosides and GSK4 was measured using a Micro-Cal ITC200 (Malvern). All proteins were prepared in 25 mM MES (pH 6.0), 150 mM NaCl, and 0.05% (w/v) DDM. Nucleosides (5~10 mM) and GSK4 (100-200 μM) dissolved in the same buffer were titrated against 20–50 μM PfENT1 proteins at 25 °C. PEAQ-ITC analysis software (MicroCal) was employed to analyze the data. All titrations were repeated three times.
# PfENT1 mutant Q135A = target: T2, PfENT1 mutant Q135A (Plasmodium falciparum, UniProt Q8IDM6, Q135A); assay: ITC binding to PfENT1 mutant Q135A; conditions: Fig. 3c
# T2 construct: 10xHis (N); made in house; host or cells: Sf9 insect cells (baculovirus)
# T2 sequence (Q8IDM6 whole entry Q135A): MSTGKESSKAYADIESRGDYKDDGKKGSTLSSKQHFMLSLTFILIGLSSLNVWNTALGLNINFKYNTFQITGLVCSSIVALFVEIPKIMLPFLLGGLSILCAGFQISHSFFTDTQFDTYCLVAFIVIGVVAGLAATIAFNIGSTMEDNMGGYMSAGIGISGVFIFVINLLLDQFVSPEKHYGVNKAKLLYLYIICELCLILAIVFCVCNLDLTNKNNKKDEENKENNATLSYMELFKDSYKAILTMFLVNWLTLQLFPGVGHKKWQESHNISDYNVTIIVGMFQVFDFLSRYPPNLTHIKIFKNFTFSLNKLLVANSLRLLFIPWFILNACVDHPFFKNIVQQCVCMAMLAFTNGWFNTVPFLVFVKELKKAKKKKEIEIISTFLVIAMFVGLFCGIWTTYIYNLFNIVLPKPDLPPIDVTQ
# Description: as §1, §2
# PfENT1 = target: T3, PfENT1 (Plasmodium falciparum, UniProt Q8IDM6); assay: cell-based; type: cell-based; conditions: for uptake of inosine: time course, PfENT1 knock-in yeast
# T3 construct: expressed in transfected cells; host or cells: S. cerevisiae BY4741, FUI1 deleted, PfENT1 knock-in under the TEF1 promoter
# T3 sequence (Q8IDM6 whole entry): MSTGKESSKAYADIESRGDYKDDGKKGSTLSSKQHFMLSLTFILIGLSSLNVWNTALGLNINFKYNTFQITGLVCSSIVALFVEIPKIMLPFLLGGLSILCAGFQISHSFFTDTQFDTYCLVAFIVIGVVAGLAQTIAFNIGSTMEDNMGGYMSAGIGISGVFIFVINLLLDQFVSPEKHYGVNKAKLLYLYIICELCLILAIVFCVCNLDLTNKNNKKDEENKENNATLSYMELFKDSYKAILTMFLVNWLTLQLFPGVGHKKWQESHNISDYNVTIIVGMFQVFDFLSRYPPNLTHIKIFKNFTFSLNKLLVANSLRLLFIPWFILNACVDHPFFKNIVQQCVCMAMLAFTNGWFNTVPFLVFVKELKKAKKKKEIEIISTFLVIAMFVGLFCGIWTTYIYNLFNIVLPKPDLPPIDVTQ
# Description: The S. cerevisiae strain (ATCC, #201388) BY4741 (MATa his3Δ1 leu2Δ0 met15Δ0 ura3Δ0) was used as the starting yeast strain. Yeast strains were cultured in YPD medium (20 g/L peptone, 10 g/L yeast extract, and 20 g/L dextrose). The antibiotic G418 was supplemented at a concentration of 250 μg/mL to select strains carrying the KanMX marker. E. coli DH5α was used for subcloning.
# (§3) Codon-optimized PfENT1 (for expression in yeast) was synthesized by Sangon Biotech. The carboxyl terminus of PfENT1 was HA-tagged through PCR. The TEF1p promoter and PGK1t terminator were amplified from BY4741 genomic DNA. Overlap PCR was applied to generate the gene overexpression cassette of PfENT1 (TEF1p promoter-PfENT1-PGK1t terminator). The two 600-bp homologous arms corresponding to the upstream and downstream regions of the FUI1 gene were amplified from BY4741 genomic DNA. The gene cassette of the ‘TEF1p promoter-PfENT1-PGK1t terminator’ together with the two homologous arms was cloned into the PUC19 plasmid through Gibson assembly, generating the final plasmid PUC19: PfENT1. PfENT1 mutations were generated using point mutation and verified by Sanger sequencing. The spacer targeting the FUI1 gene (5ʹ-[…]-3ʹ) was cloned into the pCas-BsaI plasmid to generate the pCas-FUI1 plasmid as described previously.
# To obtain fui1Δ and PfENT1 (or its mutations) overexpression in the S. cerevisiae strain, 1 μg pCas-FUI1 plasmid and 15 μg PUC19:PfENT1 were transformed into yeast using the LiAc/ssDNA/PEG method. Then, the strains were plated on a YPD plate supplemented with G418. Clones were screened using PCR and finally verified through Sanger sequencing.
# Cells were grown overnight in YPD medium to mid-log phase and harvested by centrifugation at 3000 × g for 5 min. Cells were washed three times in 2% glucose. The yeast pellets were resuspended in uptake assay buffer (25 mM Tris-HCl 8.0,150 mM NaCl, 2% glucose) to a final concentration of 2 × 10^8 cells mL^–1. The uptake assay was initiated by combining 100 μL of prewarmed (30 °C) cells and 100 μL uptake assay buffer mixture: 25 mM Tris-HCl 8.0, 150 mM NaCl, 2% glucose, 200 nM [^3H] Inosine ([8-^3H] inosine; 20 Ci mmol^–1, American Radiolabeled Chemicals). Cells were removed onto a membrane filter at the appropriate times to generate the time course. After washing by vacuum filtration with 2 ml ice-cold 2% glucose, the radioactivity retained on the filter was incubated with 1 mL of ULTIMA GOLD scintillation fluid (Perkin Elmer, 77-15311). Counts were measured using a liquid scintillation analyzer (Perkin Elmer, Tri-Carb 5110TR).
# For competition assays, the indicated nucleosides and nucleobase were added into the external uptake assay buffer (25 mM Tris-HCl 8.0, 150 mM NaCl, and 2% glucose) to a final concentration of 5 mM, and the transport reaction was stopped at 30 min. The reading of the competition assays was normalized against the one without a competitor, which had the uptake of radiolabeled inosine set as 100%. All uptake assays were performed at 30 °C and repeated three times. Error bars represent the s.d. The final result was analyzed in the GraphPad Prism 8 software ([…]).
# PfENT1 Q135A = target: T4, PfENT1 Q135A (Plasmodium falciparum, UniProt Q8IDM6, Q135A); assay: Inosine uptake assay, yeast expressing PfENT1 Q135A; type: cell-based; conditions: Fig. 3d, construct Q135A
# T4 construct: expressed in transfected cells; host or cells: S. cerevisiae BY4741, FUI1 deleted, PfENT1 mutant knock-in under the TEF1 promoter
# T4 sequence (Q8IDM6 whole entry Q135A): as the sequence (Q8IDM6 whole entry Q135A) above
# Text: as §3, with “previously. […]” for “previously.”
# (§4) Cells were grown overnight in YPD medium to mid-log phase and harvested by centrifugation at 3000 × g for 5 min. […] After washing by vacuum filtration with 2 ml ice-cold 2% glucose, the radioactivity retained on the filter was incubated with 1 mL of ULTIMA GOLD scintillation fluid (Perkin Elmer, 77-15311). Counts were measured using a liquid scintillation analyzer (Perkin Elmer, Tri-Carb 5110TR). […]
# PfENT1WT = target: T5, PfENT1WT (Plasmodium falciparum, UniProt Q8IDM6); assay: biochemical; type: binding
# T5 construct: 10xHis (N); made in house; host or cells: Sf9 insect cells (baculovirus)
# T5 sequence (Q8IDM6 whole entry): as the sequence (Q8IDM6 whole entry) above
# Description: as §1, §2
# PfENT1 W53A = target: T6, PfENT1 W53A (Plasmodium falciparum, UniProt Q8IDM6, W53A); assay: Inosine uptake assay, yeast expressing PfENT1 W53A; type: cell-based; conditions: Fig. 3d, construct W53A
# T6 construct: expressed in transfected cells; host or cells: S. cerevisiae BY4741, FUI1 deleted, PfENT1 mutant knock-in under the TEF1 promoter
# T6 sequence (Q8IDM6 whole entry W53A): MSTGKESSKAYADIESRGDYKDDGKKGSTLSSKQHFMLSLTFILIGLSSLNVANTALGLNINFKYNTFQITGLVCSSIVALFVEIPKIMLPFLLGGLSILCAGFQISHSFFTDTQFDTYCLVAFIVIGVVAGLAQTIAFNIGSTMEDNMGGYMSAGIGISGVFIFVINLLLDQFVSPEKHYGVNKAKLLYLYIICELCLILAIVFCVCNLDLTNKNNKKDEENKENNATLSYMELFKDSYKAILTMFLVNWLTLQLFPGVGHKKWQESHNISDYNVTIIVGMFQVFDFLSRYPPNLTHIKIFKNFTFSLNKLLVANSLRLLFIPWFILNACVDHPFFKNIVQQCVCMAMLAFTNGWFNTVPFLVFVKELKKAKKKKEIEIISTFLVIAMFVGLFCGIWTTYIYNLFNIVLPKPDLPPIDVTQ
# Text: as §3, with “previously. […]” for “previously.”
# as §4
# PfENT1 mutant W53A = target: T7, PfENT1 mutant W53A (Plasmodium falciparum, UniProt Q8IDM6, W53A); assay: ITC binding to PfENT1 mutant W53A
# T7 construct: 10xHis (N); made in house; host or cells: Sf9 insect cells (baculovirus)
# T7 sequence (Q8IDM6 whole entry W53A): as above
# Description: as §1, §2
structure (smiles),measurement,setting,value
"OC[C@H]1O[C@@H](n2cnc3c(O)ncnc32)[C@H](O)[C@@H]1O [Inosine, inosine]",binding affinity (Kd),"PfENT1 mutant R291A; ITC, Fig. 3c, mutant R291A, mean ± SD (n = 3)",maintains inosine binding
same,Kd,"PfENT1 mutant R291A; Kd, Mean and Mean ± SD, source data Figure 3c, construct R291A",46.7 µM
same,Kd,"PfENT1 mutant R291A; Kd, N=3 (individual experiments), source data Figure 3c, construct R291A",53 µM and 56 µM and 31 µM
same,Kd,"PfENT1 mutant R291A; binding affinity (Kd), ITC, Fig. 3c, mutant R291A, mean ± SD (n = 3)",46.7 ± 13.6 µM
same,binding affinity (Kd),PfENT1 mutant Q135A,complete abolishment
same,remaining activity at 5000 µM,"PfENT1; 0.5 h, read-out: Uptake of [3H]-inosine (Percentage of PfENT1 WT), competition by nonradioactive nucleoside/nucleobase 5 mM, 30 min, 30 °C, uptake without competitor set as 100%, Fig. 1c",11%
same,Uptake of [3H]-inosine (Percentage of PfENT1 WT),"PfENT1; competition by nonradioactive nucleoside/nucleobase 5 mM, 30 min, 30 °C, uptake without competitor set as 100%, Fig. 1c",abolished
same,uptake of inosine,"PfENT1; time 1 (min), 3 independent experiments",0.8242 fmol per million cells and 1.048 fmol per million cells and 1.269 fmol per million cells
same,uptake of inosine,PfENT1; time 5 (min),1.492 fmol per million cells and 1.522 fmol per million cells and 1.615 fmol per million cells
same,uptake of inosine,PfENT1; time 10 (min),2.864 fmol per million cells and 2.823 fmol per million cells and 2.628 fmol per million cells
same,uptake of inosine,PfENT1; time 20 (min),4.048 fmol per million cells and 4.1747 fmol per million cells and 4.441 fmol per million cells
same,uptake of inosine,PfENT1; time 30 (min),5.946 fmol per million cells and 6.16 fmol per million cells and 6.198 fmol per million cells
same,uptake of inosine,PfENT1; time 45 (min),10.3307 fmol per million cells and 9.87 fmol per million cells and 9.474 fmol per million cells
same,uptake of inosine,PfENT1; time 60 (min),11.051 fmol per million cells and 11.1951 fmol per million cells and 11.2042 fmol per million cells
same,Uptake of [3H]-inosine (Percentage of PfENT1 WT),PfENT1 Q135A,abolished the transport activity
same,Kd,"PfENT1WT; Kd, Mean and Mean ± SD, source data Figure 1a",64.7 µM
same,Kd,"PfENT1WT; Kd, N=3 (individual experiments), source data Figure 1a",52.3 µM and 64.2 µM and 77.7 µM
same,Kd,"PfENT1WT; binding affinity (Kd), ITC, 25 °C, pH 6.0, mean ± SD (n = 3), Fig. 1a and text",64.7 ± 12.7 µM
same,Kd,"PfENT1WT; read-out: Kd, Mean and Mean ± SD, source data Figure 1a",64.7 ± 12.7 µM
same,Uptake of [3H]-inosine (Percentage of PfENT1 WT),PfENT1 W53A,abolished the transport activity
same,Kd,"PfENT1 mutant W53A; Kd, Mean and Mean ± SD, source data Figure 3c, construct W53A",1830 µM
same,Kd,"PfENT1 mutant W53A; Kd, N=3 (individual experiments), source data Figure 3c, construct W53A",1900 µM and 1940 µM and 1650 µM
same,Kd,"PfENT1 mutant W53A; binding affinity (Kd), ITC, Fig. 3c, mutant W53A, mean ± SD (n = 3)",1830 ± 157 µM
same,weaker binding than the wild type,"PfENT1 mutant W53A; inosine binding, W53A versus wild type",30 fold
